# Earlier results, collected in patent publication US20150150473A1, “Drug-Enhanced Neurofeedback” (McLean Hospital Corporation, priority 2008, published 2015).
# Settings: in vivo
structure (smiles),measurement,value
"N[C@@H]1CON=C1O [DCS, d-cycloserine]",half-life,approximately 10 hours
